Data published in patent US11951210B2, “Methods for making giant vesicles and their use” (THE JOHNS HOPKINS UNIVERSITY, priority 2017, dated 2024).

Target: FKBP (FK506 binding protein) and FRB (FKBP-rapamycin binding) protein (Homo sapiens, UniProt P42345+P62942)
Experiment: Chemically inducible dimerization (FKBP/FRB) protein translocation in GUVs on external rapamycin
Assay type: biochemical
Conditions: rapamycin added outside the vesicles
Text: 3A) Schematic of the GUV containing fluorescently-labeled FK506 binding protein (FKBP) and FKBP-rapamycin binding (FRB) proteins. In this embodiment, FKBP peptide is fused to the positively charged myristoylated alanine-rich protein kinase c substrate (MARCKS) domain and binds to the negatively charged phosphatidylserine lipids present at the inner leaflet. The FKBP binding partner, FRB, is luminal. […] The normalized intensity profiles are the intensity traces of the dashed line in each image.
This was achieved by using the chemically inducible dimerization paradigm where FKBP (FK506 binding protein) and FRB (FKBP-rapamycin binding) protein can hetrodimerize in the presence of rapamycin.

Sequence of FKBP (FK506 binding protein) and FRB (FKBP-rapamycin binding) protein (P62942 whole entry): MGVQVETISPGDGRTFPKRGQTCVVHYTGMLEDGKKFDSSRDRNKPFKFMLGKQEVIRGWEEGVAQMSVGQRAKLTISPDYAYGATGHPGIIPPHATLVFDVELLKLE
Sequence of FKBP (FK506 binding protein) and FRB (FKBP-rapamycin binding) protein (P42345 2012-2144 limits assumed): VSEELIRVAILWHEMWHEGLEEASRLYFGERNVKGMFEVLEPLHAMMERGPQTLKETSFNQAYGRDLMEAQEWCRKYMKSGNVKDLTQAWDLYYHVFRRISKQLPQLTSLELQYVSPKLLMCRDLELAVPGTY

SMILES: CO[C@H]1C[C@@H]2CC[C@@H](C)[C@@](O)(O2)C(=O)C(=O)N2CCCC[C@H]2C(=O)O[C@H]([C@H](C)C[C@@H]2CC[C@@H](O)[C@H](OC)C2)CC(=O)[C@H](C)/C=C(\C)[C@@H](O)[C@@H](OC)C(=O)[C@H](C)C[C@H](C)/C=C/C=C/C=C/1C [rapamycin]
- Permeation of the GUV membrane: permeates the vesicles
